Measured values published in patent US9790210B2, “N-(monocyclic aryl),N'-pyrazolyl-urea, thiourea, guanidine and cyanoguanidine compounds as TrkA kinase inhibitors” (Array BioPharma Inc., priority 2012, dated 2017).

Tests used:
Experiment in all cases: KinaseProfiler
Assay type in all cases: biochemical
Settings in all cases: 10 μM, ATP near Km
CDK3/cyclinE = molecular target: T1, CDK3/cyclinE (Homo sapiens, UniProt Q00526)
T1 construct: purchased Millipore, Inc. (KinaseProfiler service)
Method in brief: (§1)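 Screening conditions: one concentration (10 μM), ATP near Km per kinase, duplicate runs. Output: POC, averaged.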

CDK5/p35 = molecular target: T2, CDK5/p35 (Homo sapiens, UniProt Q00535)
T2 construct: purchased Millipore, Inc. (KinaseProfiler service)
Method in brief: as §1

CK1_y = system: CK1_y
Method in brief: as §1

CK1gamma3 = molecular target: T3, CK1gamma3 (Homo sapiens, UniProt Q9Y6M4)
T3 construct: purchased Millipore, Inc. (KinaseProfiler service)
Method in brief: as §1

CLK3 = molecular target: T4, CLK3 (Homo sapiens, UniProt P49761)
T4 construct: purchased Millipore, Inc. (KinaseProfiler service)
Method in brief: as §1

EphA1 = molecular target: T5, EphA1 (Homo sapiens, UniProt P21709)
T5 construct: purchased Millipore, Inc. (KinaseProfiler service)
Method in brief: as §1

EphA2 = molecular target: T6, EphA2 (Homo sapiens, UniProt P29317)
T6 construct: purchased Millipore, Inc. (KinaseProfiler service)
Method in brief: as §1

EphA4 = molecular target: T7, EphA4 (Homo sapiens, UniProt P54764)
T7 construct: purchased Millipore, Inc. (KinaseProfiler service)
Method in brief: as §1

EphB3 = molecular target: T8, EphB3 (Homo sapiens, UniProt P54753)
T8 construct: purchased Millipore, Inc. (KinaseProfiler service)
Method in brief: as §1

GRK7 = molecular target: T9, GRK7 (Homo sapiens, UniProt Q8WTQ7)
T9 construct: purchased Millipore, Inc. (KinaseProfiler service)
Method in brief: as §1

HIPK1 = molecular target: T10, HIPK1 (Homo sapiens, UniProt Q86Z02)
T10 construct: purchased Millipore, Inc. (KinaseProfiler service)
Method in brief: as §1

IRAK4 = molecular target: T11, IRAK4 (Homo sapiens, UniProt Q9NWZ3)
T11 construct: purchased Millipore, Inc. (KinaseProfiler service)
Method in brief: as §1

IRR = molecular target: T12, IRR (Homo sapiens, UniProt P14616)
T12 construct: purchased Millipore, Inc. (KinaseProfiler service)
Method in brief: as §1

KIT = molecular target: T13, KIT (Homo sapiens, UniProt P10721)
T13 construct: purchased Millipore, Inc. (KinaseProfiler service)
T13 sequence (P10721 26-976): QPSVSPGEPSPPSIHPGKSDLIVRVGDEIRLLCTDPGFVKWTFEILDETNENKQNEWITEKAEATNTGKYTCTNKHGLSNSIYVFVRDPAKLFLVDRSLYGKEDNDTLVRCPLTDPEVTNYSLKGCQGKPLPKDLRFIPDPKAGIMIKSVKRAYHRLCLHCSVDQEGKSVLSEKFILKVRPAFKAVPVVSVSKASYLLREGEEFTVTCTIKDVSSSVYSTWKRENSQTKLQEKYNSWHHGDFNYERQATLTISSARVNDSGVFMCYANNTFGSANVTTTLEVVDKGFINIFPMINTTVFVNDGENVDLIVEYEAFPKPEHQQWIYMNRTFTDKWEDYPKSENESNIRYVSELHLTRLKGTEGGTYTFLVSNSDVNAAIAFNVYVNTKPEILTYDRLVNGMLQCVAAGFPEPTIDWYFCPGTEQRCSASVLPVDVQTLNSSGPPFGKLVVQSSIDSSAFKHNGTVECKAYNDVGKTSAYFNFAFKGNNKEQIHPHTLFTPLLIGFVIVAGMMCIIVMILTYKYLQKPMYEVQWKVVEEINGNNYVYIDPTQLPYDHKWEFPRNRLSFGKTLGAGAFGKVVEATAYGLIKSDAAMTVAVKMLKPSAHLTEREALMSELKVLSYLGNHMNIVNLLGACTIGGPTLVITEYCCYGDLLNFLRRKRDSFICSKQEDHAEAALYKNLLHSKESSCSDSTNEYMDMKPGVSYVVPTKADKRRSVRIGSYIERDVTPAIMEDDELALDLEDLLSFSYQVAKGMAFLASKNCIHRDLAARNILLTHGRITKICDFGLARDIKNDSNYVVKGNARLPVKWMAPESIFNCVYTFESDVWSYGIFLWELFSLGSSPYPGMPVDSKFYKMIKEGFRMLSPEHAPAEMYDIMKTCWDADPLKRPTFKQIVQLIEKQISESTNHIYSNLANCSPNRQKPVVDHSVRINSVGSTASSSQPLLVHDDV
Method in brief: as §1

MAP3K5 = molecular target: T14, MAP3K5 (Homo sapiens, UniProt Q99683)
T14 construct: purchased Millipore, Inc. (KinaseProfiler service)
Method in brief: as §1

MAPKAP-K5 = molecular target: T15, MAPKAP-K5 (Homo sapiens, UniProt Q8IW41)
T15 construct: purchased Millipore, Inc. (KinaseProfiler service)
T15 sequence (Q8IW41 whole entry): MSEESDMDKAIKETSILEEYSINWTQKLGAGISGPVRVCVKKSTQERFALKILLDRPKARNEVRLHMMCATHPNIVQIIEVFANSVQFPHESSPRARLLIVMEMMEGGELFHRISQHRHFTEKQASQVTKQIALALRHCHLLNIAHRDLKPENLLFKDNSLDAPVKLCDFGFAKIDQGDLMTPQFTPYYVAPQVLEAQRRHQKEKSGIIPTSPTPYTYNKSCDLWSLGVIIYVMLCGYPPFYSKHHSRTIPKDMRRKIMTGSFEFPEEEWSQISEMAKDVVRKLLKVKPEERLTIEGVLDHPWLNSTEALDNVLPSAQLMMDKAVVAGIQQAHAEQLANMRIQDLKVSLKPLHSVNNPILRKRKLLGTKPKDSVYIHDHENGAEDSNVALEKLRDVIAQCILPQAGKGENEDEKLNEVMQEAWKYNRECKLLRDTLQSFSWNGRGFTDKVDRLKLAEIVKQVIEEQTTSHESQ
Method in brief: as §1

MINK = molecular target: T16, MINK (Homo sapiens, UniProt Q8N4C8)
T16 construct: purchased Millipore, Inc. (KinaseProfiler service)
Method in brief: as §1

MKK7beta = molecular target: T17, MKK7beta (Homo sapiens, UniProt O14733)
T17 construct: purchased Millipore, Inc. (KinaseProfiler service)
Method in brief: as §1

MKNK2 = molecular target: T18, MKNK2 (Homo sapiens, UniProt Q9HBH9)
T18 construct: purchased Millipore, Inc. (KinaseProfiler service)
Method in brief: as §1

MSK1 = molecular target: T19, MSK1 (Homo sapiens, UniProt O75582)
T19 construct: purchased Millipore, Inc. (KinaseProfiler service)
T19 sequence (O75582 whole entry): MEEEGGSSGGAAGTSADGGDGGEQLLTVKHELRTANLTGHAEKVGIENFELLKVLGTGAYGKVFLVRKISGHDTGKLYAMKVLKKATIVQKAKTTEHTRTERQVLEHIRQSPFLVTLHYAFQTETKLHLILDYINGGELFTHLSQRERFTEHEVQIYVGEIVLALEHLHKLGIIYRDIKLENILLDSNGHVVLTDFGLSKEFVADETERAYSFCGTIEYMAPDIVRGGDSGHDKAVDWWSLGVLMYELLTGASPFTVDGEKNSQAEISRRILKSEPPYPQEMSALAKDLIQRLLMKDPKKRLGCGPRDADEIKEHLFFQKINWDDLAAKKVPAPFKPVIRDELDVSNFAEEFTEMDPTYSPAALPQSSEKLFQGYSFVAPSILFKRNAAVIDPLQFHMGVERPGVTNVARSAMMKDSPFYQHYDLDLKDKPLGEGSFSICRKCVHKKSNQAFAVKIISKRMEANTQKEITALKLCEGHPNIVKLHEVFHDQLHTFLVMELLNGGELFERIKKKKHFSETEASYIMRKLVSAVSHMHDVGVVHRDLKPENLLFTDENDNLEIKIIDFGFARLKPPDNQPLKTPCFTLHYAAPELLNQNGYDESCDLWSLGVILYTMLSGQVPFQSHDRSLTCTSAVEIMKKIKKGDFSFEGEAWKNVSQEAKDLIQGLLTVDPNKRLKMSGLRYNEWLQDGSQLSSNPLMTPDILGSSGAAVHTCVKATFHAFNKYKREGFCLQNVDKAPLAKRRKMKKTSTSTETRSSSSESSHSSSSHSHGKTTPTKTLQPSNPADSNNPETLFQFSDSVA
Method in brief: as §1

MSSK1 = molecular target: T20, MSSK1 (Homo sapiens, UniProt Q9UPE1)
T20 construct: purchased Millipore, Inc. (KinaseProfiler service)
T20 sequence (Q9UPE1 whole entry): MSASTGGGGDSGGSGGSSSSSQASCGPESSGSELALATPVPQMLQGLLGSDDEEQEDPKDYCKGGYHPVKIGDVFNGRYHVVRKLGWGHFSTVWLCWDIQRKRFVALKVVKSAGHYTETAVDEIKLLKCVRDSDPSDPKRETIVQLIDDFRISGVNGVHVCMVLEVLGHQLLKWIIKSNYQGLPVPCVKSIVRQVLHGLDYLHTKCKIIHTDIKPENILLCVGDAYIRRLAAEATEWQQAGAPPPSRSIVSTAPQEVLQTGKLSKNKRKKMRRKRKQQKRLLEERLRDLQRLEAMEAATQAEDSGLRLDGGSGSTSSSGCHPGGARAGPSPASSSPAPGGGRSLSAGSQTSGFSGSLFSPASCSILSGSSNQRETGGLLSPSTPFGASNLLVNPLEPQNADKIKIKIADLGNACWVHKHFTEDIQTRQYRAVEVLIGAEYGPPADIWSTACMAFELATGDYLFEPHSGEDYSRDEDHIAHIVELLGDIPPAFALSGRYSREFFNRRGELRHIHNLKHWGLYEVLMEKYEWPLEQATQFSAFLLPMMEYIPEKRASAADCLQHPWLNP
Method in brief: as §1

MST3 = molecular target: T21, MST3 (Homo sapiens, UniProt Q9Y6E0)
T21 construct: purchased Millipore, Inc. (KinaseProfiler service)
Method in brief: as §1

MuSK = molecular target: T22, MuSK (Homo sapiens, UniProt O15146)
T22 construct: purchased Millipore, Inc. (KinaseProfiler service)
Method in brief: as §1

PDGFRalpha = molecular target: T23, PDGFRalpha (Homo sapiens, UniProt P16234)
T23 construct: purchased Millipore, Inc. (KinaseProfiler service)
T23 sequence (P16234 24-1089): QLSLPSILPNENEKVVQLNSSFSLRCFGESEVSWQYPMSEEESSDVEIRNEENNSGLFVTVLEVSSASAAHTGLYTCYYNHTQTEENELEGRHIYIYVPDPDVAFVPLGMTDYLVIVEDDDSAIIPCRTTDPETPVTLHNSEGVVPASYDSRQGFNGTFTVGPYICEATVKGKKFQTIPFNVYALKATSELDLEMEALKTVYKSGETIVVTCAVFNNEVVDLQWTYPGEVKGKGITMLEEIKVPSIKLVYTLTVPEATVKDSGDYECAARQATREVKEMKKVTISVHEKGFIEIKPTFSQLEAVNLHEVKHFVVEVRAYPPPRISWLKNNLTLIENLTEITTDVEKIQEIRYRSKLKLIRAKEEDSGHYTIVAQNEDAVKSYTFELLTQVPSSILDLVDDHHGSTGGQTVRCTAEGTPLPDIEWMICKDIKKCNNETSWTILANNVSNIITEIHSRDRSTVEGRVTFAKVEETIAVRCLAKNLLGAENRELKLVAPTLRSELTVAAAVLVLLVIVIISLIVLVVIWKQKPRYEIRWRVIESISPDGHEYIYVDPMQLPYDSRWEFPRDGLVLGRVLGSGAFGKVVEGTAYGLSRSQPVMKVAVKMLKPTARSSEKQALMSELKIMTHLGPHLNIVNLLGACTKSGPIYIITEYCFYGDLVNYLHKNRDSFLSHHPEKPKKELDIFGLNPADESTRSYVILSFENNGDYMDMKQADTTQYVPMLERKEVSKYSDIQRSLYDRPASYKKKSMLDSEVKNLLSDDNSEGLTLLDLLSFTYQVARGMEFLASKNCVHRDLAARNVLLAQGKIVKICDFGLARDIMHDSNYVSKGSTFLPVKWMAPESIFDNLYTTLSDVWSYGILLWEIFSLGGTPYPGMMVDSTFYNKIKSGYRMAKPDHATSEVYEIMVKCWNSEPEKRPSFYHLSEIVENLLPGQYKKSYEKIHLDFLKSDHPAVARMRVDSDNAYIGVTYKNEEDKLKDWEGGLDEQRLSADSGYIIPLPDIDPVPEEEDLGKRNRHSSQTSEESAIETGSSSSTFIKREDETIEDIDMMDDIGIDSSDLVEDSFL
Method in brief: as §1

PDGFRbeta = molecular target: T24, PDGFRbeta (Homo sapiens, UniProt P09619)
T24 construct: purchased Millipore, Inc. (KinaseProfiler service)
Method in brief: as §1

PKCbetaI = molecular target: T25, PKCbetaI (Homo sapiens, UniProt P05771)
T25 construct: purchased Millipore, Inc. (KinaseProfiler service)
Method in brief: as §1

PKCbetaII = molecular target: T26, PKCbetaII (Homo sapiens, UniProt P05771)
T26 construct: purchased Millipore, Inc. (KinaseProfiler service)
Method in brief: as §1

PKCgamma = molecular target: T27, PKCgamma (Homo sapiens, UniProt P05129)
T27 construct: purchased Millipore, Inc. (KinaseProfiler service)
Method in brief: as §1

PKCiota = molecular target: T28, PKCiota (Homo sapiens, UniProt P41743)
T28 construct: purchased Millipore, Inc. (KinaseProfiler service)
Method in brief: as §1

PKCtheta = molecular target: T29, PKCtheta (Homo sapiens, UniProt Q04759)
T29 construct: purchased Millipore, Inc. (KinaseProfiler service)
Method in brief: as §1

PKCzeta = molecular target: T30, PKCzeta (Homo sapiens, UniProt Q05513)
T30 construct: purchased Millipore, Inc. (KinaseProfiler service)
T30 sequence (Q05513 whole entry): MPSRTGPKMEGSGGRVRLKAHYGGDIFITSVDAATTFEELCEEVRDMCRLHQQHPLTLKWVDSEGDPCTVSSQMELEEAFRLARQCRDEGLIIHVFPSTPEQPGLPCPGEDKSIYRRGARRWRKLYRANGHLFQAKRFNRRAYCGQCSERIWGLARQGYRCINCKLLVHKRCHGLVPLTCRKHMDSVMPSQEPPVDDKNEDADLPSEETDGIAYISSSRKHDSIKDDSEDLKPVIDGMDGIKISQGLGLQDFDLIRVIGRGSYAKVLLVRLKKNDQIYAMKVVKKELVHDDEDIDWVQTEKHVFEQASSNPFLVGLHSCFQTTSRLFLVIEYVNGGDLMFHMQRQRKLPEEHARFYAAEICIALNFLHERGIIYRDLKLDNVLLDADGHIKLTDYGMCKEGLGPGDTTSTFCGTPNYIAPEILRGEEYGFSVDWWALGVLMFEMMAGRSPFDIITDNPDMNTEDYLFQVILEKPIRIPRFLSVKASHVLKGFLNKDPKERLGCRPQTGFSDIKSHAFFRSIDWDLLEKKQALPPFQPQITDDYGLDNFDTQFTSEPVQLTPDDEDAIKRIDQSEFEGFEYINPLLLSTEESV
Method in brief: as §1

PKD2 = molecular target: T31, PKD2 (Homo sapiens, UniProt Q9BZL6)
T31 construct: purchased Millipore, Inc. (KinaseProfiler service)
Method in brief: as §1

PRK2 = molecular target: T32, PRK2 (Homo sapiens, UniProt Q16513)
T32 construct: purchased Millipore, Inc. (KinaseProfiler service)
Method in brief: as §1

Rse = molecular target: T33, Rse (Homo sapiens, UniProt Q06418)
T33 construct: purchased Millipore, Inc. (KinaseProfiler service)
Method in brief: as §1

Rsk4 = molecular target: T34, Rsk4 (Homo sapiens, UniProt Q9UK32)
T34 construct: purchased Millipore, Inc. (KinaseProfiler service)
Method in brief: as §1

Syk = molecular target: T35, Syk (Homo sapiens, UniProt P43405)
T35 construct: purchased Millipore, Inc. (KinaseProfiler service)
Method in brief: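 ATP was held near the Km for every individual kinase. Testing used 10 μM inhibitor in two replicate runs, and reported numbers are average POC.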

TAO3 = molecular target: T36, TAO3 (Homo sapiens, UniProt Q9H2K8)
T36 construct: purchased Millipore, Inc. (KinaseProfiler service)
Method in brief: as §1

TSSK1 = molecular target: T37, TSSK1 (Homo sapiens, UniProt Q9BXA7)
T37 construct: purchased Millipore, Inc. (KinaseProfiler service)
Method in brief: as §1

Txk = molecular target: T38, Txk (Homo sapiens, UniProt P42681)
T38 construct: purchased Millipore, Inc. (KinaseProfiler service)
Method in brief: as §1

ULK2 = molecular target: T39, ULK2 (Homo sapiens, UniProt Q8IYT8)
T39 construct: purchased Millipore, Inc. (KinaseProfiler service)
Method in brief: as §1

p38alpha = molecular target: T40, p38alpha (Homo sapiens, UniProt Q16539)
T40 construct: purchased Millipore, Inc. (KinaseProfiler service)
T40 sequence (Q16539 whole entry): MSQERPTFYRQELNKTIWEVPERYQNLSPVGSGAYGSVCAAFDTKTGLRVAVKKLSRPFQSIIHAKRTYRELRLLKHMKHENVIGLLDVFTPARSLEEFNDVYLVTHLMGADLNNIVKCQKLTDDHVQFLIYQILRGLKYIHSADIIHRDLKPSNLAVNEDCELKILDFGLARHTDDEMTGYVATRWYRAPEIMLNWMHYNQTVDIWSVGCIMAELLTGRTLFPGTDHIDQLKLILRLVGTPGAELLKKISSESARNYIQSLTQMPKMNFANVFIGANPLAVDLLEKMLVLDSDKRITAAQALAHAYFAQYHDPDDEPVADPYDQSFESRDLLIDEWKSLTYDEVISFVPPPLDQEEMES
Method in brief: as §1

Avg POC (CDK3/cyclinE): 101 POC | Avg POC (CDK5/p35): 110 POC | Avg POC (CK1gamma3): 112.5 POC | Avg POC (CLK3): 105 POC | Avg POC (EphA1): 117 POC | Avg POC (EphA2): 104 POC | Avg POC (EphA4): 115 POC | Avg POC (EphB3): 78.5 POC | Avg POC (GRK7): 115 POC | Avg POC (HIPK1): 118 POC | Avg POC (IRAK4): 124.5 POC | Avg POC (IRR): 99.5 POC | Avg POC (KIT): 99.5 POC | Avg POC (MAP3K5): 105 POC | Avg POC (MAPKAP-K5): 92 POC | Avg POC (MINK): 121.5 POC | Avg POC (MKK7beta): 140 POC | Avg POC (MKNK2): 106 POC | Avg POC (MSK1): 132.5 POC | Avg POC (MSSK1): 122 POC | Avg POC (MST3): 137 POC | Avg POC (MuSK): 100 POC | Avg POC (PDGFRalpha): 117.5 POC | Avg POC (PDGFRbeta): 134 POC | Avg POC (PKCbetaI): 106 POC | Avg POC (PKCbetaII): 99 POC | Avg POC (PKCgamma): 99.5 POC | Avg POC (PKCiota): 68 POC | Avg POC (PKCtheta): 105 POC | Avg POC (PKCzeta): 103 POC | Avg POC (PKD2): 98.5 POC | Avg POC (PRK2): 101.5 POC | Avg POC (Rse): 109 POC | Avg POC (Rsk4): 105 POC | Avg POC (Syk): 100 POC | Avg POC (TAO3): 95 POC | Avg POC (TSSK1): 80 POC | Avg POC (Txk): 135.5 POC | Avg POC (ULK2): 95 POC | Avg POC (p38alpha): 100.5 POC
Compound: COCCCc1cc(Cl)c(Cl)cc1NC(=O)Nc1c(C)c(-c2cnn(C)c2)nn1-c1ccccc1 [Example 15, 1-(4,5-dichloro-2-(3-methoxypropyl)phenyl)-3-(1′,4-dimethyl-1-phenyl-1H,1′H-[3,4′-bipyrazol]-5-yl)urea]
Avg POC (CK1_y): 96.5 POC
